Experiments:
[1] = system: Puccinia recondita f. sp. tritici; assay: Leaf disk assay, Puccinia recondita f. sp. tritici (wheat brown rust), preventive; assay type: in vivo; settings: 200 ppm; wheat leaf segments; assessed nine days after inoculation
Procedure: The compounds were tested in a leaf disk assay, with methods described below. The test compounds were dissolved in DMSO and diluted into water to 200 ppm. In the case of the test on Pythium ultimum, they were dissolved in DMSO and diluted into water to 20 ppm.
Erysiphe graminis f. sp. hordei (barley powdery mildew): Barley leaf segments were placed on agar in a 24-well plate and sprayed with a solution of the test compound. After allowing to dry completely, for between 12 and 24 hours, the leaf disks were inoculated with a spore suspension of the fungus. After appropriate incubation the activity of a compound was assessed four days after inoculation as preventive fungicidal activity. Erysiphe graminis f. sp. tritici (wheat powdery mildew): Wheat leaf segments were placed on agar in a 24-well plate and sprayed with a solution of the test compound. After allowing to dry completely, for between 12 and 24 hours, the leaf disks were inoculated with a spore suspension of the fungus. After appropriate incubation the activity of a compound was assessed four days after inoculation as preventive fungicidal activity. […] After appropriate incubation the activity of a compound was assessed nine days after inoculation as preventive fungicidal activity. […] After appropriate incubation the activity of a compound was assessed four days after inoculation as preventive fungicidal activity.

Pyricularia oryzae = assay type: in vivo; settings: 200 ppm; rice leaf segments; assessed four days after inoculation

| Structure (SMILES) | control of fungal infection [1] | control of fungal infection (Pyricularia oryzae) |
| --- | --- | --- |
| C#CC(C)(C)NC(=O)C(Oc1ccc2oc3ccccc3c2c1)SC (centres unmarked) [1 (16)] | at least 60% | – |
| CC#CC(C)(C)NC(=O)C(Oc1ccc2oc3ccccc3c2c1)SC (centres unmarked) [4 (16), 2-(dibenzofuranyl-2-oxy)-2-methylthio-N-(2-methylpent-3-yn-2-yl)acetamide] | – | at least 60% |
